The values that follow come from patent US12065430B2, “Indazole compound or salt thereof” (TAIHO PHARMACEUTICAL CO., LTD., priority 2018, dated 2024).

The structures appear in SMILES notation.

For test [1], the target named is G12C mutant of inactive KRAS (GDP) (Homo sapiens (Human), UniProt P01116, G12C). Conditions: reported in PTL 1 and NPL 2; cited from earlier work.
The subject of test [2] is cancer cells with KRAS G12C mutation. As to conditions: reported in PTL 1 and NPL 2; cited from earlier work.
Test [3] has as its system NCI-H358 cells. Kind of test: Growth inhibition activity on KRAS-G12C mutant cell line (NCI-H358) (in vitro, CellTiter-Glo2.0). It counts as cell-based. As to conditions: Homo sapiens, NCI-H358, 72 h, 3-day culture in the presence of the compound. On the procedure:
NCI-H358 cells (ATCC, Cat #: CRL-5807), which are a KRAS-G12C mutant human lung cancer cell line, were suspended in a 10% fetal bovine serum-containing RPMI1640 medium (manufactured by Fujifilm Wako Pure Chemical Corporation.). The cell suspension was seeded into each well of a 384-well flat-bottom microplate and cultured in an incubator containing 5% CO2 gas at 37° C. for 1 day. The test compound was dissolved in DMSO, and diluted with DMSO to give a concentration 500 times the final concentration. The solution of the test compound in DMSO was diluted with the medium used for suspending cells and added to each well of the cell-culture plate to give a DMSO final concentration of 0.2%, followed by culture in an incubator containing 5% CO2 gas at 37° C. for another 3 days. The cell count after 3-day culture in the presence of the compound was measured using CellTiter-Glo2.0 (manufactured by Promega Corporation) in accordance with the protocol recommended by Promega Corporation. The growth inhibition rate was calculated from the following equation, and the concentration of the test compound at which 50% inhibition was achieved (IC50 (nM)) was determined. […] Growth Inhibition Rate (%)=(C−T)/(C)×100 • T: the emission intensity in a well into which a test compound was added. • C: the emission intensity in a well into which a test compound was not added.

Test [4] deals with G12C K-Ras4B (1-169) (Homo sapiens (Human), UniProt P01116, G12C). The test can be described thus: Test of compounds on whether to bind to KRASG12C (LC-MS compound binding rate). As to conditions: final compound concentration of 2 μM, 1 μM protein, 25° C. for 2 hours. In a few lines:
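K-Ras4B (1-169) WT and G12C (1 μM each, mixed) in 1×TBS, 0.1 mM TCEP incubated with compound (final 2 μM) 2 h at 25° C; quenched with 0.2% formic acid. Intact-protein LC-MS (ESI+, deconvoluted); binding rate = adduct signal/(adduct + unbound signal), giving selectivity over WT.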

In test [5] the test system is tumor-bearing mice expressing KRAS G12C mutation. As to conditions: reported in PTL 2 and NPL 3; cited from earlier work.
Test [6] has as its target KRAS G12C (Homo sapiens (Human), UniProt P01116, G12C). The test can be described thus: Inhibitory activity on KRAS G12C nucleotide (GDP-GTP) exchange reaction (Bodipy FL GDP, SOS1, GppNHp). The test is classed as biochemical. Conditions: preincubation at 25° C. for 4 hours; SOS1 100 nM, GppNHp 1 μM, reaction 30 minutes. How it is done: The inhibitory activity of compounds on exchange reaction of GDP into GppNHp in Bodipy (trademark) FL-bound KRAS G12C was examined by fluorescence measurement using human recombinant KRAS G12C and SOS1 proteins.
For the preparation of KRAS G12C to which Bodipy FL GDP was bound, first, 50 μM^y KRAS G12C (amino acid region: 1-169) and 1 mM Bodipy FL GDP (Invitrogen, G22360) were incubated for 1 hour in a buffer (20 mM Tris-HCl (pH 7.5), 50 mM NaCl, 1 mM DTT) in ice in the presence of 2.5 mM EDTA. Thereafter, MgCl2 with a final concentration of 10 mM was added, and the mixture was incubated at room temperature for 30 minutes. The protein was allowed to pass through a NAP-5 column to remove free nucleotides and was used for compound evaluation.
For the measurement of the inhibitory activity of compounds on nucleotide exchange reaction, first, the compound of the present invention was diluted stepwise with dimethyl sulfoxide (DMSO). […] The change in fluorescence intensity of Bodipy FL (excitation wavelength: 485 nm, fluorescence wavelength: 520 nm) immediately after the start of reaction and after 30 minutes from the start of reaction was standardized. […]

Chain of G12C mutant of inactive KRAS (GDP) (P01116-2 other isoform, or with tags, fused parts or gaps G12C): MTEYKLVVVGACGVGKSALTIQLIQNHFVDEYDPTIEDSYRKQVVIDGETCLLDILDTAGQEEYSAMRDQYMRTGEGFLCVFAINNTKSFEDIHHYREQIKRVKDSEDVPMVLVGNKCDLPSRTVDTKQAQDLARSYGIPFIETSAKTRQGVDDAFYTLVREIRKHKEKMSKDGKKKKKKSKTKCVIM

Take `C=CC(=O)N1CC(N2CCN(C(=O)CNc3cc(C4(C)CC4)c(Cl)cc3O)CC2)C1` [ARS-853]: in test [1], the “binding to the cysteine of the G12C mutant of inactive KRAS (GDP)” value was “binds to the cysteine of the G12C mutant of inactive KRAS (GDP)”. Also, the induction of apoptosis result in test [2] is “inducing apoptosis in cancer cells with KRAS G12C mutation”.
A word on the IC50: it is the concentration needed to halve the response being measured. `C=CC(=O)N1CC(NC(=O)c2c(Cl)nc(CNc3n[nH]c4cc(Cl)c(C(C)(C)C)cc34)n2[C@H]2CCOC2)C1` [Example 97, (S)—N-(1-acryloylazetidin-3-yl)-2-(((5-(tert-butyl)-6-chloro-1H-indazol-3-yl)amino)methyl)-4-chloro-1-(tetrahydrofuran-3-yl)-1H-imidazole-5-carboxamide]: the IC50 in test [3] came to 52 nM. For the same compound, in test [4], the “binding rate for G12C K-Ras4B (1-169)” value was “A (a binding rate of 80% or more is rated “A,”)”.
Consider `C=CC(=O)N1CCN(c2ncnc3c(F)c(-c4c(O)cccc4F)c(Cl)cc23)CC1` [ARS-1620], for which the antitumor action result in test [5] was “exerts antitumor action in tumor-bearing mice expressing KRAS G12C mutation”.
Consider `C=CC(=O)N1C[C@@H](C)[C@@H](NC(=O)c2c(Cl)nc(CNc3n[nH]c4cc(Cl)c(C(C)(C)C)cc34)n2C)C1` [Example 78, N-((3R,4R)-1-acryloyl-4-methylpyrrolidin-3-yl)-2-(((5-(tert-butyl)-6-chloro-1H-indazol-3-yl)amino)methyl)-4-chloro-1-methyl-1H-imidazole-5-carboxamide], for which the IC50 in test [3] was 350 nM. In addition, the “binding rate for G12C K-Ras4B (1-169)” value in test [4] is “B (a binding rate of 60% or more and less than 80% is rated “B,”)”.
Turning to `C=CC(=O)N1CC(NC(=O)c2c(C(F)F)nc(CNc3n[nH]c4cc(Cl)c(C(C)(C)C)cc34)n2C2CCN(C(C)C)C2)C1.O=CO` (stereo not drawn) [Example 93, N-(1-acryloylazetidin-3-yl)-2-(((5-(tert-butyl)-6-chloro-1H-indazol-3-yl)amino)methyl)-4-(difluoromethyl)-1-(1-isopropylpyrrolidin-3-yl)-1H-imidazole-5-carboxamide formate], in test [3], the IC50 is 40 nM. Further, the “binding rate for G12C K-Ras4B (1-169)” value in test [4] is “A (a binding rate of 80% or more is rated “A,”)”.
For the compound `C=CC(=O)N1CC(NC(=O)c2c(Cl)nc(CNc3n[nH]c4cc(Cl)c(C(C)(C)C)cc34)n2[C@H]2CC[C@@H](OC)CC2)C1` [Example 112, N-(1-acryloylazetidin-3-yl)-2-(((5-(tert-butyl)-6-chloro-1H-indazol-3-yl)amino)methyl)-4-chloro-1-(4-methoxycyclohexyl)-1H-imidazole-5-carboxamide], the figures for the concentration for half-maximal inhibition (IC50) in test [6] and in test [3] were 5 nM and 52 nM, respectively. Further, the “binding rate for G12C K-Ras4B (1-169)” value in test [4] is “A (a binding rate of 80% or more is rated “A,”)”.
Take `C=CC(=O)N1CC(NC(=O)c2c(C)nc(CNc3n[nH]c4cc(Cl)c(C(C)(C)C)cc34)n2C)C1` [Example 3, N-(1-acryloylazetidin-3-yl)-2-(((5-(tert-butyl)-6-chloro-1H-indazol-3-yl)amino)methyl)-1,4-dimethyl-1H-imidazole-5-carboxamide]: the IC50 in test [3] worked out at 114 nM. Moreover, in test [4], the “binding rate for G12C K-Ras4B (1-169)” value was “A (a binding rate of 80% or more is rated “A,”)”.
Turning to `C=CC(=O)N1CC(NC(=O)c2c(Cl)nc(CNc3n[nH]c4cc(Cl)c(C(C)(C)C)cc34)n2C2CN(C(=O)OC(C)(C)C)C2)C1` [Example 106, Tert-butyl 3-(5-((1-acryloylazetidin-3-yl)carbamoyl)-2-(((5-(tert-butyl)-6-chloro-1H-indazol-3-yl)amino)methyl)-4-chloro-1H-imidazol-1-yl)azetidine-1-carboxylate], in test [3], the IC50 was 42 nM. In addition, the “binding rate for G12C K-Ras4B (1-169)” value in test [4] is “A (a binding rate of 80% or more is rated “A,”)”.
Regarding `C=CC(=O)N1CC(NC(=O)c2c(Cl)nc(CNc3n[nH]c4cc(Cl)c(C(C)(C)C)cc34)n2C2CCCC2)C1` [Example 105, N-(1-acryloylazetidin-3-yl)-2-(((5-(tert-butyl)-6-chloro-1H-indazol-3-yl)amino)methyl)-4-chloro-1-cyclopentyl-1H-imidazole-5-carboxamide], the IC50 in test [3] turned out to be 76 nM. Also, the “binding rate for G12C K-Ras4B (1-169)” value in test [4] is reported as “A (a binding rate of 80% or more is rated “A,”)”.
The like results for `C=CC(=O)N1CC(NC(=O)c2c(Cl)nc(CNc3n[nH]c4cc(Cl)c(C(C)(C)C)cc34)n2[C@@H]2CCN(C(C)C)C2)C1` [Example 114, (R)—N-(1-acryloylazetidin-3-yl)-2-(((5-(tert-butyl)-6-chloro-1H-indazol-3-yl)amino)methyl)-4-chloro-1-(1-isopropylpyrrolidin-3-yl)-1H-imidazole-5-carboxamide] were, in that order, 32 nM and “A (a binding rate of 80% or more is rated “A,”)”.
The like results for `C=CC(=O)N1C[C@H](NC(=O)c2c(C)nc(CNc3n[nH]c4cc(Cl)c(C(C)(C)C)cc34)n2C)[C@@H](F)C1` [Example 64, N-((3S,4S)-1-acryloyl-4-fluoropyrrolidin-3-yl)-2-(((5-(tert-butyl)-6-chloro-1H-indazol-3-yl)amino)methyl)-1,4-dimethyl-1H-imidazole-5-carboxamide] were, in that order, 241 nM and “A (a binding rate of 80% or more is rated “A,”)”.
`C=CC(=O)N1CC(NC(=O)c2c(Cl)nc(CNc3n[nH]c4cc(Cl)c(C(C)(C)C)cc34)n2[C@@H]2CCN(c3ccccn3)C2)C1` [Example 124, (R)—N-(1-acryloylazetidin-3-yl)-2-(((5-(tert-butyl)-6-chloro-1H-indazol-3-yl)amino)methyl)-4-chloro-1-(1-(pyridin-2-yl)pyrrolidin-3-yl)-1H-imidazole-5-carboxamide]: in test [3], the IC50 is 19 nM. Besides, the “binding rate for G12C K-Ras4B (1-169)” value in test [4] is listed as “A (a binding rate of 80% or more is rated “A,”)”.
